According to ChEMBL document CHEMBL5257130, “Methyl and Fluorine Effects in Novel Orally Bioavailable Keap1-Nrf2 PPI Inhibitor” (ACS Med Chem Lett, 2023):
Converted amounts (≈) assume the structure as drawn.

Legend:
[1] = molecular target: Keap1/Nrf2 (Homo sapiens, UniProt Q14145); experiment: Inhibition of Nrf2-Keap1 Kelch domain (unknown origin) protein-protein interaction in presence of biotin labeled 16mer ETGE peptide AFFAQLQLDEETGEFL; type: protein assay
[2] = Apparent permeability in human Caco-2 cells at 25 micromol/L incubated for 2 hrs by LC/MS/MS analysis; type: ADME, cell-based; conditions: dose 25 µmol/L
[3] = Metabolic stability in rat liver microsomes assessed as parent compound remaining at 5 uM measured after 60 mins; type: ADME, Microsome; conditions: read-out: Stability
[4] = Solubility of compound in FeSSIF at pH 5 incubated for 4 hrs by LC/MS analysis; type: ADME
[5] = Metabolic stability in human liver microsomes assessed as parent compound remaining at 5 uM measured after 60 mins; type: ADME, Microsome; conditions: read-out: Stability
[6] = Solubility of compound in FASSIF at pH 6.5 incubated for 4 hrs by LC/MS analysis; type: ADME
[7] = molecular target: Kelch-like ECH-associated protein 1 (Homo sapiens) (UniProt Q14145); experiment: Binding affinity to Keap1 Kelch domain (unknown origin) assessed as change in entropy by isothermal titration calorimetry assay
[8] = molecular target: Kelch-like ECH-associated protein 1 (Homo sapiens) (UniProt Q14145)
Description: Binding affinity to Keap1 Kelch domain (unknown origin) assessed as change in free energy by isothermal titration calorimetry assay

[9] = molecular target: Kelch-like ECH-associated protein 1 (Homo sapiens) (UniProt Q14145); remark: listed apart in the source
Description: Binding affinity to Keap1 Kelch domain (unknown origin) assessed as change in enthalpy by isothermal titration calorimetry assay

[10] = cells; conditions: Homo sapiens, HRMC, 18 h
Description: Upregulation of HO-1 expression in human HRMC cells incubated for 18 hrs by ELISA assay

[11] = molecular target: KEAP1/NRF2 (Rattus norvegicus) (UniProt O54968+P57790); experiment: In vivo inhibition of Nrf2-Keap1 Kelch domain protein-protein interaction in po dosed Wistar rat kidney assessed as increase in HO-1 protein level incubated for 6 hrs by ELISA assay; type: functional, organism-based; conditions: dose 3-30 mg/kg
[12] = AUC in CD(SD) rat at 3 mg/kg, po measured upto 25 hrs; type: ADME, organism-based; set-up: time < 25 hrs, dose 3 mg/kg, route po; conditions: in vivo
[13] = AUC in CD(SD) rat at 1 mg/kg, iv measured upto 25 hrs; type: ADME, organism-based; set-up: time < 25 hrs, dose 1 mg/kg, route iv; conditions: in vivo
[14] = Half life in CD(SD) rat at 1 mg/kg, iv measured upto 25 hrs; type: ADME, organism-based; conditions: in vivo
[15] = MRT in CD(SD) rat at 1 mg/kg, iv measured upto 25 hrs; type: ADME, organism-based; conditions: in vivo
[16] = Total clearance in CD(SD) rat at 1 mg/kg, iv measured upto 25 hrs; type: ADME, organism-based; conditions: in vivo
[17] = Volume of distribution in CD(SD) rat at 1 mg/kg, iv measured upto 25 hrs; type: ADME, organism-based; conditions: in vivo
[18] = Oral bioavailability in CD(SD) rat at 3 mg/kg measured upto 25 hrs; type: ADME, organism-based; conditions: in vivo
[19] = MRT in CD(SD) rat at 3 mg/kg, po measured upto 25 hrs; type: ADME, organism-based; conditions: in vivo
[20] = Tmax in CD(SD) rat at 3 mg/kg, po measured upto 25 hrs; type: ADME, organism-based; conditions: in vivo

Sequence of Keap1/Nrf2 (Q16236 whole entry, the tested form may be a part): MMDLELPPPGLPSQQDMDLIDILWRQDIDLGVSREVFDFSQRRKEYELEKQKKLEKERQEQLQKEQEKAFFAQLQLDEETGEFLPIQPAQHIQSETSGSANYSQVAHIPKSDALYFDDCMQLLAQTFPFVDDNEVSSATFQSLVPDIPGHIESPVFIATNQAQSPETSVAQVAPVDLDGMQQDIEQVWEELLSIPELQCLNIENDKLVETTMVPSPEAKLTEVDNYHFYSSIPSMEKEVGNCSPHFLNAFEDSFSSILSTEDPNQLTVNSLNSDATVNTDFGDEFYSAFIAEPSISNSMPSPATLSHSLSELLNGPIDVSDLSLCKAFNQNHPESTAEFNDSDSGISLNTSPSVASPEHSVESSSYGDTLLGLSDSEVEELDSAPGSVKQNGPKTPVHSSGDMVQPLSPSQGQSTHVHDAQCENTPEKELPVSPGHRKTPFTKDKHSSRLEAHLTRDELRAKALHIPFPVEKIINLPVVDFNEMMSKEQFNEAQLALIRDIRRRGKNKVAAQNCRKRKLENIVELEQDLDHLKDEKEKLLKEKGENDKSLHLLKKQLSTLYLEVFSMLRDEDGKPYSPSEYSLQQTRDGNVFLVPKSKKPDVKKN
Sequence of Keap1/Nrf2 (Q14145 whole entry, the tested form may be a part): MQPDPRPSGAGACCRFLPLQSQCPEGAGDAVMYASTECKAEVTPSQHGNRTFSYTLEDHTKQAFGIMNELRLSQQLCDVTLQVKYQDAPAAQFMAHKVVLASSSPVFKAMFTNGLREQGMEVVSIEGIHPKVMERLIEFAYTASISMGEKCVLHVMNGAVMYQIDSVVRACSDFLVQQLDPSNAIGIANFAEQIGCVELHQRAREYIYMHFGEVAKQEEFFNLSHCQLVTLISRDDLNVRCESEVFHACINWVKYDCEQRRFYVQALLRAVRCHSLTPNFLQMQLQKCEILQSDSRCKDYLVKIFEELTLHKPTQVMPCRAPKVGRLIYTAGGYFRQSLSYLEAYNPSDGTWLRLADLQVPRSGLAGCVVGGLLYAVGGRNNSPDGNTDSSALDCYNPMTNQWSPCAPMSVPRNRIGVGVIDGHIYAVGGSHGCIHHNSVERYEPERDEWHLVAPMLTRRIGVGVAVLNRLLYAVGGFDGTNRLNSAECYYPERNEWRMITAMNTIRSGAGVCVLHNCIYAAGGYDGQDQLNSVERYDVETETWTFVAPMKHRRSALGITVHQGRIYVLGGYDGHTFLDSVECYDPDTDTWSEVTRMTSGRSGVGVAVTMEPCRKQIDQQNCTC
Sequence of Kelch-like ECH-associated protein 1 (Homo sapiens) (Q14145 whole entry, the tested form may be a part): as above

Cc1ccc(C(NC(=O)Cc2ccc3c(c2)CCCC3)C2(C(=O)O)CC2)cc1 (stereo not given)
IC50 [1]: 54 µM

Cc1ccc(C(CC(=O)O)NC(=O)Cc2ccc3c(c2)CCCC3)cc1 (stereo not given)
IC50 [1]: 40 µM
Papp at 2 h, 25 µM [2]: 17 ×10⁻⁶ cm/s
remaining at 1 h, 5 µM [3]: 95%
solubility at 4 h [4]: 469 µM (≈ 165 µg/mL)
remaining at 1 h, 5 µM [5]: 85%
solubility at 4 h [6]: 432 µM (≈ 152 µg/mL)

Cc1ccc([C@H](CC(=O)O)NC(=O)Cc2ccc3c(c2)CCCC3)cc1
-TdeltaS [7]: -2.2 kcal/mol
deltaG [8]: -6.7 kcal/mol
IC50 [1]: 39 µM
deltaH [9]: -4.5 kcal/mol

Cc1ccc([C@@H](NC(=O)C(=O)c2ccccc2)[C@@H](C)C(=O)O)cc1
IC50 [1]: > 100 µM
Papp at 2 h, 25 µM [2]: 1.7 ×10⁻⁶ cm/s

CC[C@H](C(=O)O)[C@H](NC(=O)Cc1ccc2c(c1)CCCC2)c1ccc(C)cc1
IC50 [1]: 99 µM

COc1ccc(S(=O)(=O)Nc2ccc(N3CCCCCC3)cc2C(=O)O)cc1
IC50 [1]: 37 µM
Papp at 2 h, 25 µM [2]: 13 ×10⁻⁶ cm/s
remaining at 1 h, 5 µM [3]: 0%
solubility at 4 h [4]: 424 µM (≈ 172 µg/mL)
remaining at 1 h, 5 µM [5]: 0%
solubility at 4 h [6]: ≥ 475 µM

Cc1ccc([C@@H](NC(=O)[C@@H](O)c2ccccc2)[C@@H](C)C(=O)O)cc1
IC50 [1]: 96 µM
Papp at 2 h, 25 µM [2]: 0.26 ×10⁻⁶ cm/s

CC[C@@H](C(=O)O)[C@H](NC(=O)Cc1ccc2c(c1)CCCC2)c1ccc(C)cc1
IC50 [1]: 55 µM

Cc1ccc([C@@H](NC(=O)[C@H](O)c2ccccc2)[C@@H](C)C(=O)O)cc1
IC50 [1]: > 100 µM
Papp at 2 h, 25 µM [2]: 0.27 ×10⁻⁶ cm/s

Cc1ccc([C@@H](NC(=O)Cc2ccc3c(c2)CCCC3)[C@@H](C)C(=O)O)cc1
-TdeltaS [7]: -3.7 kcal/mol
deltaG [8]: -8 kcal/mol
IC50 [1]: 2.8 µM
Papp at 2 h, 25 µM [2]: 25 ×10⁻⁶ cm/s
deltaH [9]: -4.3 kcal/mol
IC50 [10]: 56 µM

Cc1ccc([C@@H](NC(=O)[C@H](F)c2ccccc2)[C@@H](C)C(=O)O)cc1
IC50 [1]: 90 µM
Papp at 2 h, 25 µM [2]: 6.6 ×10⁻⁶ cm/s

Cc1ccc([C@@H](NC(=O)[C@@H](F)c2ccccc2)[C@@H](C)C(=O)O)cc1
IC50 [1]: 3.5 µM
Papp at 2 h, 25 µM [2]: 12 ×10⁻⁶ cm/s
IC50 [10]: 36 µM

Cc1ccc([C@@H](NC(=O)C(F)(F)c2ccccc2)[C@@H](C)C(=O)O)cc1
IC50 [1]: 8.9 µM
Papp at 2 h, 25 µM [2]: 15 ×10⁻⁶ cm/s
IC50 [10]: 66 µM

Cc1ccc([C@@H](NC(=O)Cc2ccccc2)[C@@H](C)C(=O)O)cc1
IC50 [1]: 67 µM
Papp at 2 h, 25 µM [2]: 2.3 ×10⁻⁶ cm/s

CO[C@@H](C(=O)N[C@H](c1ccc(C)cc1)[C@@H](C)C(=O)O)c1ccccc1
IC50 [1]: 83 µM

CO[C@H](C(=O)N[C@H](c1ccc(C)cc1)[C@@H](C)C(=O)O)c1ccccc1
IC50 [1]: > 100 µM
Papp at 2 h, 25 µM [2]: 3.4 ×10⁻⁶ cm/s

Cc1ccc(C(NC(=O)Cc2ccc3c(c2)CCCC3)C(C)(C)C(=O)O)cc1 (stereo not given)
IC50 [1]: 17 µM

Cc1ccc([C@@H](NC(=O)Cc2ccc3c(c2)CCCC3)[C@H](C)C(=O)O)cc1
IC50 [1]: 51 µM

Cc1ccc([C@@H](CC(=O)O)NC(=O)Cc2ccc3c(c2)CCCC3)cc1
IC50 [1]: > 100 µM

Cc1ccc([C@@H](NC(=O)[C@@H](F)c2ccc3c(c2)CCCC3)[C@@H](C)C(=O)O)cc1
-TdeltaS [7]: -1.2 kcal/mol
inhibition [11]: Dose-Dependent Effect
AUC at 25 h [12]: 324 µM·h
IC50 [1]: 0.089 µM
Papp at 2 h, 25 µM [2]: 33 ×10⁻⁶ cm/s
AUC at 25 h [13]: 79 µM·h
remaining at 1 h, 5 µM [3]: 87%
half-life [14]: 4.5 h
MRT [15]: 5.6 h
solubility at 4 h [4]: 303 µM (≈ 116 µg/mL)
clearance [16]: 0.5 mL/min/kg
Vd [17]: 0.18 L/kg
IC50 [10]: 2 µM
remaining at 1 h, 5 µM [5]: 70%
solubility at 4 h [6]: ≥ 475 µM
bioavailability [18]: 136%
MRT [19]: 10 h
Tmax [20]: 1.3 h
